The subject of series [1] is green peach aphids (Myzus persicae). Briefly: Myzus persicae oral test. The format is in vivo. The following applies: for pest or weed control at 20 ppm: Myzus persicae, 120 h, read-out: efficacy in %. The protocol:
Solvent: 100 parts by weight of acetone
Subsequently, the plates are sealed with parafilm, which a mixed population of green peach aphids (Myzus persicae) within a second microtitre plate is able to puncture and imbibe the solution through it.
After 5 days, the efficacy in % is determined. 100% means that all the aphids have been killed; 0% means that no aphids have been killed.

Series [2] in a line: log P by HPLC on reversed-phase column (C18), EEC directive 79/831 Annex V.A8. The format is physicochemical.
Series [3] relates to green peach aphid (Myzus persicae). Briefly: Myzus persicae spray test (Chinese cabbage leaf discs). The format is in vivo. The following applies: for pest or weed control at 500 g/ha: Myzus persicae, foliar, read-out: efficacy in %. The protocol: Myzus persicae—Spray Test
To produce a suitable active ingredient formulation, 1 part by weight of active ingredient is dissolved with the stated parts by weight of solvent and made up with water containing an emulsifier concentration of 1000 ppm until the desired concentration is attained. To produce further test concentrations, the formulation is diluted with emulsifier-containing water.
After 5-6 days, the efficacy in % is determined. 100% means that all the aphids have been killed; 0% means that no aphids have been killed.

The mark [4] stands for this setting: application rate 20 ppm, after 5 days, oral, 100% = all aphids killed.
Where [5] appears, read: application rate 500 g/ha, after 5-6 days, Chinese cabbage leaf discs, 100% = all aphids killed.
[6] abbreviates: reversed-phase HPLC column (C18), neutral range, pH 7.8, HPLC C18, 43° C., preparation examples, read-out: log P[n].
The mark [7] stands for this setting: neutral range, pH 7.8, HPLC C18, 43° C., preparation examples, read-out: log P[n].

Like-named read-outs stand apart in the source and are kept apart here.

For the compound `CO/N=C/c1ncc(C(=O)N(C)c2cccnc2)n1C` [I-1-001], the efficacy in % in series [1] (setting [4]) was 100%; in series [3] (setting [5]) it was 90%. For the same compound, the “logP [n]” value in series [2] (pH 7.8) was 1.1.
The corresponding values for `CN(C(=O)c1cnc(C2OCCO2)n1C)c1cccnc1` [I-1-002] are 100%, 90% and 0.73.
Taken in the same sequence, the figures for `CCN(C(=O)c1cnc(C2OCCO2)n1C)c1cccnc1` [I-1-003] were 100%, 90% and 0.98.
Turning to `CCO/N=C/c1ncc(C(=O)N(C)c2cccnc2)n1C` [I-1-004], the efficacy in % in series [1] (setting [4]) was 100%; in series [3] (setting [5]), 90%. In addition, in series [2] (pH 7.8), the “logP [n]” value is listed as 1.41.
As for `CC(C)O/N=C/c1ncc(C(=O)N(C)c2cccnc2)n1C` [I-1-005], the efficacy in % in series [1] (setting [4]) and in series [3] (setting [5]) was 100% throughout. Besides, the “logP [n]” value in series [2] (pH 7.8) worked out at 1.7.
As for `CN(C(=O)c1cnc(C=O)n1C)c1cccnc1` [I-1-007, 2-Formyl-N,1-dimethyl-N-(pyridin-3-yl)-1H-imidazole-5-carboxamide], the pest or weed control at 20 ppm in series [1] (po) is 100%. The chromatographic logP in series [2] (setting [6]) is 0.59. For the same compound, the pest or weed control at 500 g/ha in series [3] was 100%.
In the case of `COCC1COC(c2ncc(C(=O)N(C)c3cccnc3)n2C)O1` (stereo not shown) [I-1-009], the efficacy in % in series [1] (setting [4]) was 100%; in series [3] (setting [5]), 90%. In series [2] (pH 7.8), the “logP [n]” value is 0.95.
Turning to `CCC1COC(c2ncc(C(=O)N(C)c3cccnc3)n2C)O1` (stereo not shown) [I-1-011], the efficacy in % in series [1] (setting [4]) worked out at 100%; in series [3] (setting [5]), 90%. In addition, in series [2] (pH 7.8), the “logP [n]” value stood at 1.3.
The corresponding values for `C=CCO/N=C/c1ncc(C(=O)N(C)c2cccnc2)n1C` [I-1-012] are 100%, 90% and 1.55.
The corresponding values for `CN(C(=O)c1cnc(/C=N/OCc2ccccn2)n1C)c1cccnc1` [I-1-013] are 100%, 100% and 1.26.
Consider `CC1COC(c2ncc(C(=O)N(C)c3cccnc3)n2C)O1` (stereo not shown) [I-1-014], for which the efficacy in % in series [1] (setting [4]) and in series [3] (setting [5]) was 100% in each case. The “logP [n]” value in series [2] (pH 7.8) is 1.02.
Take `CN(C(=O)c1cnc(C2OCC3(CC3)CO2)n1C)c1cccnc1` [I-1-015]: the values for the efficacy in % in series [1] (setting [4]) and in series [3] (setting [5]) were 100% and 90%, respectively. For the same compound, the “logP [n]” value in series [2] (pH 7.8) came to 1.29.
In turn, `CN(C(=O)c1cnc(C2COC(C)(C)OC2)n1C)c1cccnc1` [I-1-016, 2-(2,2-Dimethyl-1,3-dioxan-5-yl)-N,1-dimethyl-N-(pyridin-3-yl)-1H-imidazole-5-carboxamide] gave an efficacy in % in series [1] (setting [4]) of 100%. For the same compound, in series [2] (pH 7.8), the “log P[n]” value stood at 1.48 and the “logP [n]” value worked out at 1.48. The efficacy in % in series [3] (setting [5]) was found to be 100%.
As for `CCOC(=O)N/N=C/c1ncc(C(=O)N(C)c2cccnc2)n1C` [I-1-017], the efficacy in % in series [1] (setting [4]) and in series [3] (setting [5]) was 100% each time. Also, the “logP [n]” value in series [2] (pH 7.8) was 1.06.
On to `COC(=O)N(C)/N=C/c1ncc(C(=O)N(C)c2cccnc2)n1C` [I-1-018, Methyl (2E)-1-methyl-2-({1-methyl-5-[methyl(pyridin-3-yl)carbamoyl]-1H-imidazol-2-yl}methylene)hydrazinecarboxylate], for which the pest or weed control at 20 ppm in series [1] (setting [4]) came out at 100%. Further, the chromatographic logP in series [2] (setting [7]) amounted to 1.08. Besides, in series [3] (setting [5]), the pest or weed control at 500 g/ha was determined as 100%.
Regarding `CCOC(=O)N(C)/N=C/c1ncc(C(=O)N(C)c2cccnc2)n1C` [I-1-019], the efficacy in % in series [1] (setting [4]) worked out at 100%; in series [3] (setting [5]), 90%. The “logP [n]” value in series [2] (pH 7.8) was determined as 1.33.
The corresponding values for `CC1OC(c2ncc(C(=O)N(C)c3cccnc3)n2C)OC1C` (stereo not shown) [I-1-020] are 100%, 100% and 1.23.
Taken in the same sequence, the figures for `CN(C(=O)c1cnc(C2OCCS2)n1C)c1cccnc1` (stereo not shown) [I-1-021] were 100%, 100% and 0.97.
Taken in the same sequence, the figures for `CN(C(=O)c1cnc(C2OCCCS2)n1C)c1cccnc1` (stereo not shown) [I-1-022] were 100%, 100% and 1.13.
`CCCO/N=C/c1ncc(C(=O)N(C)c2cccnc2)n1C` [I-1-023]: the efficacy in % in series [1] (setting [4]) and in series [3] (setting [5]) was 100% throughout. Also, the “logP [n]” value in series [2] (pH 7.8) is listed as 1.74.
Turning to `COC(=O)c1ncc(C(=O)N(C)c2cccnc2)n1C` [I-1-026, Methyl 1-methyl-5-[methyl(pyridin-3-yl)carbamoyl]-1H-imidazol-2-carboxylate], in series [1] (setting [4]), the pest or weed control at 20 ppm turned out to be 100%. Besides, the chromatographic logP was determined as 0.53 in series [2] (acidic range, pH 2.7, HPLC C18, 43° C., preparation examples, read-out: log P[a]); 0.84 in series [2] (setting [7]); 0.42 in series [2] (reversed-phase HPLC column (C18), neutral range, pH 7.8, HPLC C18, 43° C., Table 1, read-out: logP [n]). The pest or weed control at 500 g/ha in series [3] (setting [5]) was determined as 90%.
`CCCCO/N=C/c1ncc(C(=O)N(C)c2cccnc2)n1C` [I-1-027]: the efficacy in % in series [1] (setting [4]) and in series [3] (setting [5]) was 100% each time. The “logP [n]” value in series [2] (pH 7.8) is 2.08.
With `CN(C(=O)c1cnc(/C=N/NC(=O)OCc2ccccc2)n1C)c1cccnc1` [I-1-028], the values for the efficacy in % in series [1] (setting [4]) and in series [3] (setting [5]) were 100% and 90%, respectively. The “logP [n]” value in series [2] (pH 7.8) is 1.63.
Taken in the same sequence, the figures for `CCCCN(/N=C/c1ncc(C(=O)N(C)c2cccnc2)n1C)C(=O)OCC` [I-1-029] were 100%, 90% and 2.06.
Take `CN(C(=O)c1cnc(C(=O)NC(C)(C)C)n1C)c1cccnc1` [I-1-030]: the values for the efficacy in % in series [1] (setting [4]) and in series [3] (setting [5]) were 100% and 90%, respectively. In addition, in series [2] (pH 7.8), the “logP [n]” value turned out to be 1.62.
The corresponding values for `CC(C)NC(=O)c1ncc(C(=O)N(C)c2cccnc2)n1C` [I-1-032] are 100%, 100% and 1.26.
Taken in the same sequence, the figures for `CC(C)CO/N=C/c1ncc(C(=O)N(C)c2cccnc2)n1C` [I-1-034] were 100%, 90% and 2.07.
The corresponding values for `C#CCO/N=C/c1ncc(C(=O)N(C)c2cccnc2)n1C` [I-1-035] are 100%, 100% and 1.83.
Consider `CN(C(=O)c1cnc(/C=N/OCC(C)(C)C)n1C)c1cccnc1` [I-1-036], for which the efficacy in % in series [1] (setting [4]) and in series [3] (setting [5]) was 100% each time. Further, the “logP [n]” value in series [2] (pH 7.8) stood at 2.22.
In the case of `CN(/N=C/c1ncc(C(=O)N(C)c2cccnc2)n1C)C(=O)OC(C)(C)C` [I-1-038], the figures for the efficacy in % in series [1] (setting [4]) and in series [3] (setting [5]) were 100% and 90%, respectively. Also, the “logP [n]” value in series [2] (pH 7.8) was found to be 1.82.
In the case of `CCN(C(=O)c1cnc(C2OCC(C)(C)CO2)n1C)c1cccnc1` [I-1-040], the efficacy in % is on record as 100% in series [1] (setting [4]) and 90% in series [3] (setting [5]). For the same compound, the “logP [n]” value in series [2] (pH 7.8) came out at 1.61.
Regarding `CCN(C(=O)c1cnc(/C=N/OC(C)C)n1C)c1cccnc1` [I-1-041], the efficacy in % in series [1] (setting [4]) turned out to be 100%; in series [3] (setting [5]), 90%. For the same compound, in series [2] (pH 7.8), the “logP [n]” value is recorded as 1.81.
Compound `CNC(=O)c1ncc(C(=O)N(C)c2cccnc2)n1C` [I-1-061] displayed an efficacy in % in series [1] (setting [4]) of 100%. Besides, the “logP [n]” value in series [2] (pH 7.8) was 0.7.
Taken in the same sequence, the figures for `CN(C(=O)c1cnc(C(=O)NCC2CC2)n1C)c1cccnc1` [I-1-063] were 100% and 1.39.
The corresponding values for `COC(=O)CNC(=O)c1ncc(C(=O)N(C)c2cccnc2)n1C` [I-1-077] are 90% and 0.93.
Turning to `CCONC(=O)c1ncc(C(=O)N(C)c2cccnc2)n1C` [I-1-078], the “logP [n]” value in series [2] (pH 7.8) turned out to be 0.67. In series [3] (setting [5]), this compound yielded an efficacy in % of 90%.
For `CC(C)C(=O)c1ncc(C(=O)N(C)c2cccnc2)n1C` [I-1-082, 2-Isobutyryl-N,1-dimethyl-N-(pyridin-3-yl)-1H-imidazole-5-carboxamide], the chromatographic logP in series [2] (setting [6]) is 1.55. Besides, the pest or weed control at 500 g/ha in series [3] (setting [5]) worked out at 100%.
Turning to `CCC(=O)c1ncc(C(=O)N(C)c2cccnc2)n1C` [I-1-086], the “logP [n]” value in series [2] (pH 7.8) stood at 1.23. Further, the efficacy in % in series [3] (setting [5]) turned out to be 90%.
For `CCN(C)C(=O)c1ncc(C(=O)N(c2cccnc2)C2CC2)n1C` [I-1-087], the “logP [n]” value in series [2] (pH 7.8) is reported as 1.11.
Turning to `CN(C(=O)c1cnc(C(=O)NS(=O)(=O)C2CC2)n1C)c1cccnc1` [I-1-088], in series [2] (pH 7.8), the “logP [n]” value came out at 0.72.
Take `CN(C(=O)c1cnc(C(=O)NCCO)n1C)c1cccnc1` [I-1-089]: the “logP [n]” value in series [2] (pH 7.8) came out at 0.45.
Regarding `CN(C(=O)c1cncn1C)c1cccnc1` [N,1-Dimethyl-N-(pyridin-3-yl)-1H-imidazole-5-carboxamide], the chromatographic logP in series [2] (setting [6]) worked out at 0.44.
